Measurements: patent publication US8268792B2, “Use of an active ingredient combination that contains hydroxystilbene for preventing and/or treating diseases” (Carl-Friedrich Spaich, priority 2005, dated 2012)
Entries after “also recorded” stand apart in the source; their conditions may differ.

Columns and labels:
[1] = In vivo accumulation of ERr 731® ingredients in dog plasma (100, 300, 1000 mg/kg/day); design: species or system dog (pure-bred beagles); details: male and female dogs, ERr 731® 100, 300, 1000 mg/kg body weight/day, day 1
Experimental: (§1) These plasma samples were processed as follows: 500 μl of plasma were mixed with 25 μl of an internal standard working solution (2.5 ng/μl rhaponticin or rhapontigenin in methanol) and then mixed with 500 μl of isotonic NaCl solution and 2.5 ml of diethyl ether/butanol (9/1; v/v). After shaking and centrifugation (10 minutes at 4600 rpm), about 2 ml of the supernatant were removed and dried under a stream of nitrogen (at 60° C.). The pellet was taken up in 50 μl of methanol. Addition of 200 μl of distilled water was followed by renewed mixing, and 200 μl were pipetted into autosampler tubes (light-protected). 30 μl of the samples were injected for analysis into an LC-MS/MS system (PE Sciex API 3000). Chromatographic separation of the analytes took place on a Phenomenex Polymer X column with a gradient of an ammonium buffer solution and an acetonitrile/methanol mixture as mobile phase.
On day 1, 5 ml of blood were taken from the animals after 0, 0.5, 1, 2, 4, 8 and 24 hours in each case, and plasma was obtained. The analysis as described in section a) was carried out thereon in order to detect rhaponticin, deoxyrhaponticin, rhapontigenin, deoxyrhapontigenin, resveratrol and piceatannol in blood. The results of the test are depicted in FIG. 2a.

[2] = Dissolving tests with ERr 731® in ethanol and glycerol; format: physicochemical
[3] = target: T1, estrogen receptor β (ERβ) (Homo sapiens, UniProt Q92731); assay: ERβ/mC3-luciferase transactivation in transfected HEC-1B cells; format: cell-based; details: HEC-1B cells cotransfected with hERβ and mC3-Luc, 24 hours incubation
T1 construct: expressed in transfected cells; host or cells: HEC-1B human endometrial adenocarcinoma cells (no endogenous ERα or ERβ)
T1 sequence (Q92731 whole entry): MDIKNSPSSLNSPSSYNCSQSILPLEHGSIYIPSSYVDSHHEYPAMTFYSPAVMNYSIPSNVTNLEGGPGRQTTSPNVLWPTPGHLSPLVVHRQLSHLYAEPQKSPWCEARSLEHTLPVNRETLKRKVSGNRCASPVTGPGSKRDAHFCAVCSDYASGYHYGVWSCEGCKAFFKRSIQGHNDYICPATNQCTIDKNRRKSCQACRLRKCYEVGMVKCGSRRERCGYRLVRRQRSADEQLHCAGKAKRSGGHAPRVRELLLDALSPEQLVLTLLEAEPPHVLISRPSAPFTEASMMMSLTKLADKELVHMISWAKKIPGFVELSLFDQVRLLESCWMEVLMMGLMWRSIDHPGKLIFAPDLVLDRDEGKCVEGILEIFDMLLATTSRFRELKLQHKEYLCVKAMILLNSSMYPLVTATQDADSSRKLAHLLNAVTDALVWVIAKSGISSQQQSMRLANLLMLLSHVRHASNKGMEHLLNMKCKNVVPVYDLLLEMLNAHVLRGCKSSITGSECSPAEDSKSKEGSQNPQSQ
Text: They therefore represent a possible way of investigating, in a human and endometrial context, ligand-dependent effects of substances on the transactivation mechanisms in relation to different receptor subtypes and different estrogen-responsive promoters.
An established ERβ/mC3-luciferase system was employed. For this purpose, HEC-1B cells were applied in 24-well plates with a density of 95 000 cells/well (in Dulbecco's modified Essential Medium (DMEM/F12)). The next day, they were cotransfected with an ERβ-containing construct (hERβ/pSG2) and a triple-ERE-containing promoter/luciferase construct (mC3-Luc/pGL2) (Hillisch et al. Dissecting physiological roles of estrogen receptor alpha and beta with potent selective ligands from structure-based design. Mol. Endocrinol. 2004 July; 18:1599-609). The transient transfection took place using DOTAP (N-[1-(2,3-dioleoyloxy)]-N,N,N-trimethylammoniumpropane methylsulfate, Roth) as described by the manufacturer.
After 24 hours, the cells were treated with appropriate concentrations of the substances or substance mixtures to be investigated. […] The incubation time was 24 hours. The cells were then lysed. The Luciferase Assay® kit (Promega) was used to determine the luciferase activity on the one hand, and the BCA® kit (Sigma) was used to determine the protein content on the other hand. […]

[4] = test system: transcription factor NF-κB; details: cited from earlier work
[5] = test system: hormone-sensitive and -insensitive prostate cancer cells; details: pure resveratrol; cited from earlier work
HL60 leukemia cells = details: cited from earlier work
[6] = test system: AR-dependent gene expression; details: depending on the concentration; cited from earlier work
[7] = Pharmacokinetics of ERr 731® ingredients in subject after oral intake (plasma, LC-MS/MS); format: in vivo, human; details: volunteer
Experimental: Subsequently, 10 ml of blood was taken at various times (as indicated in FIG. 1) and the plasma was obtained by centrifugation.
as §1

[8] = test system: bacteria of the human intestinal tract; details: cited from earlier work
[9] = Test A: 200 mg of dry extract in 50 ml of glycerol R
[10] = Test B: 200 mg of dry extract in 50 ml of ethanol 30% R
[11] = Test C: 200 mg of dry extract in 50 ml of ethanol 50% R
[12] = Test D: 200 mg of dry extract in 50 ml of ethanol 86% R

| SMILES | accumulation (AUC 0-24 h) in dog plasma [1] | content found dissolved [2, 9] | dissolved, of theory [2, 9] | content found dissolved [2, 10] | dissolved, of theory [2, 10] | content found dissolved [2, 11] | dissolved, of theory [2, 11] | content found dissolved [2, 12] | dissolved, of theory [2, 12] | effect on transcription factor NF-κB [4] | also measured |
| --- | --- | --- | --- | --- | --- | --- | --- | --- | --- | --- | --- |
| COc1ccc(C=Cc2cc(O)cc(O[C@@H]3O[C@H](CO)[C@@H](O)[C@H](O)[C@H]3O)c2)cc1 [deoxyrhaponticin] | dose-dependent accumulation | 27.1% deoxyrhaponticin | (90.6% of theory) | 25.2% deoxyrhaponticin | (84.2% of theory) | 29.0% deoxyrhaponticin | (97.0% of theory) | 29.5% deoxyrhaponticin | (98.7% of theory) | – | – |
| COc1ccc(C=Cc2cccc(O)c2)cc1O [deoxyrhapontigenin, 3′,5-Dihydroxy-4′-methoxystilbene] | undetectable | – | – | – | – | – | – | – | – | – | activation of ERβ (relative luciferase activity vs DMSO control) [3]: activate the ERβ dose-dependently; also recorded: effective only at higher concentrations |
| Oc1cc(O)cc(/C=C/c2ccc(O)c(O)c2)c1 [piceatannol] | – | – | – | – | – | – | – | – | – | inhibitory effect | – |
| Oc1ccc(C=Cc2cc(O)cc(O)c2)cc1 [resveratrol] | – | – | – | – | – | – | – | – | – | – | apoptotic effect on prostate cancer cells [5]: apoptotic effect; apoptotic effect on HL60 leukemia cells (HL60 leukemia cells): apoptotic effect; AR-dependent gene expression [6]: an increase or inhibition of AR-dependent gene expression was observed |
| COc1ccc(C=Cc2cc(O)cc(O[C@@H]3O[C@H](CO)[C@@H](O)[C@H](O)[C@H]3O)c2)cc1O [rhaponticin, 3,3′,5-Trihydroxy-4′-methoxystilbene 3-O-β-D-glucopyranoside] | dose-dependent accumulation | 55.1% rhaponticin | (89.0% of theory) | 52.2% rhaponticin | (84.3% of theory) | 58.8% rhaponticin | (95.0% of theory) | 59.8% rhaponticin | (96.6% of theory) | inactive | time of maximum in the blood ([7]; oral 40 mg ERr 731®): 3 to 4 h; detection in the blood (plasma) ([7]; oral 10 tablets = 40 mg ERr 731®): detected in the blood; degradation by intestinal bacteria [8]: degraded by bacteria of the human intestinal tract to rhapontigenin |
